The values below come from ChEMBL document CHEMBL1201862, “PubChem BioAssay data set” (2004).

Assay in all cases: DTP human tumour cell line panel, 48 h
Assay [1] has as its system HOP-92.
Assay [2] has as its system OVCAR-4.
For assay [3], the system named is HCC 2998.
The subject of assay [4] is TK-10.
The subject of assay [5] is SR.
For assay [6], the system named is U-251.
For assay [7], the system named is ACHN.
The subject of assay [8] is OVCAR-5.
The subject of assay [9] is CCRF-CEM.
In assay [10] the test system is Malme-3M.
The test system of assay [11] is KM12.
The subject of assay [12] is MOLT-4.
The test system of assay [13] is LOX IMVI.
Assay [14] has as its system NCI-H23.
Assay [15] has as its system SK-MEL-2.
Assay [16] concerns NCI-H522.
Assay [17] concerns SK-MEL-28.
The test system of assay [18] is A498.

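Grown in 96-well plates, cells were treated for 48 hours with each compound at five concentrations. Insufficient inhibition: endpoint recorded as highest concentration tested. GI50 marks 50% less growth.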 Active and inactive are the calls of the source. Cut-off read from the data, not from the text of the source: active = GI50 up to about 1.1 µM and inactive = higher.

For orientation: GI50 means the concentration giving 50% growth inhibition. For `N#C/C(=C\c1cccc(Cl)c1Cl)c1ccccc1`, the GI50 is 44.5 µM (inactive) in [1]; 61.5 µM (inactive) in [2]; > 79.3 µM (inactive) in assay [3]; 57.3 µM (inactive) in assay [4]; > 38.1 µM (inactive) in assay [5]; 36.2 µM (inactive) in assay [6]. For the same molecule, the GI50 in [7] was 44.9 µM (inactive); in [8], > 100 µM (inactive); in assay [9], 39.3 µM (inactive); in [10], > 48.2 µM (inactive); in assay [11] it was > 82.4 µM (inactive); in assay [12], > 100 µM (inactive). Besides, the GI50 in [13] is > 75.9 µM (inactive); in assay [14], 40.8 µM (inactive); in assay [15], 47.1 µM (inactive); in [16], 52.8 µM (inactive); in assay [17] it was > 100 µM (inactive); in [18], 34.6 µM (inactive).

With `CCc1cccc(C(C)C)c1NC(=O)C(=O)C(C(=O)C(=O)OC)c1nc2ccccc2nc1O` (stereo unspecified), the GI50 in assay [1], in assay [2], in [3], in [4], in assay [5] and in assay [6] was > 100 µM (inactive) each time. Also, the GI50 in [7], in assay [8], in [9], in [10], in assay [11] and in [12] was > 100 µM (inactive) in each case. Besides, the GI50 in assay [13], in assay [14], in assay [15], in assay [16], in assay [17] and in [18] was > 100 µM (inactive) in each case.

In the case of `COC(=O)/C(=C/c1ccc(OC)cc1)C(C(=O)O)=C1CCCC1`, the GI50 in assay [1], in assay [2], in [3], in assay [4], in assay [5] and in assay [6] was > 100 µM (inactive) each time. The GI50 in assay [7], in assay [8], in assay [9], in assay [11], in assay [12] and in assay [13] was > 100 µM (inactive) throughout. For the same molecule, the GI50 in assay [14], in assay [15], in assay [16] and in [18] was > 100 µM (inactive) in each case.

`CCOC(=O)c1oc2ccc(OC)c3c2c1CCC3`: the GI50 was 41.6 µM (inactive) in [1]; 51.6 µM (inactive) in assay [2]; > 100 µM (inactive) in assay [3]; 83.8 µM (inactive) in assay [4]; 37.9 µM (inactive) in assay [5]; > 100 µM (inactive) in assay [6]. Besides, the GI50 is > 100 µM (inactive) in [7]; 44.7 µM (inactive) in assay [8]; 46.7 µM (inactive) in assay [9]; > 100 µM (inactive) in [10]; > 100 µM (inactive) in assay [11]; 26.1 µM (inactive) in assay [12]. The GI50 in assay [13] is > 100 µM (inactive); in [14] it was 59.6 µM (inactive); in assay [15], > 100 µM (inactive); in assay [16] it was 67.3 µM (inactive); in [17], > 100 µM (inactive); in assay [18] it was > 100 µM (inactive).

For the molecule `Cc1nc2c3c(ccc2nc1O)C(=O)c1ccccc1C3=O`, the GI50 in assay [1] is 96.2 µM (inactive); in [2] it was > 100 µM (inactive); in assay [3], > 100 µM (inactive); in [4], > 100 µM (inactive); in [5], > 100 µM (inactive); in assay [6] it was 54.1 µM (inactive). Moreover, the GI50 is 24.4 µM (inactive) in assay [7]; > 100 µM (inactive) in assay [8]; > 100 µM (inactive) in [10]; 32.2 µM (inactive) in assay [11]; 41.6 µM (inactive) in assay [13]; 66.7 µM (inactive) in assay [14]. For the same molecule, the GI50 is 7.18 µM (inactive) in [16], > 100 µM (inactive) in assay [17] and 20.3 µM (inactive) in [18].

As for `CC(C)=CCOc1ccc(-c2coc3cc4c(c(O)c3c2=O)C=CC(C)(C)O4)cc1`, the GI50 in assay [2] was 16.7 µM (inactive); in assay [3], 83.6 µM (inactive); in assay [4], > 100 µM (inactive); in [5], > 100 µM (inactive); in assay [6] it was 38.8 µM (inactive); in assay [7], > 100 µM (inactive). In addition, the GI50 in assay [8] was > 100 µM (inactive); in assay [9], 43.5 µM (inactive); in [11] it was > 100 µM (inactive); in [12] it was > 100 µM (inactive); in assay [13] it was 1.7 µM (inactive); in [14], 5.35 µM (inactive). The GI50 is 0.129 µM (active) in assay [16], 91.4 µM (inactive) in assay [17] and 14.9 µM (inactive) in assay [18].

In the case of `CCOc1ccc(NC(=O)CC#N)cc1`, the GI50 was > 100 µM (inactive) in [2]; 6.79 µM (inactive) in [3]; > 100 µM (inactive) in assay [4]; > 100 µM (inactive) in assay [5]; > 100 µM (inactive) in assay [6]; > 100 µM (inactive) in assay [7]. In addition, the GI50 in assay [8], in [9], in assay [10], in assay [11], in [12] and in assay [13] was > 100 µM (inactive) throughout. The GI50 in assay [14], in assay [15], in assay [16], in assay [17] and in [18] was > 100 µM (inactive) in each case.

As for `C/N=C(\N=c1/ss/c(=N\C)n1C)N(C)C.[O-][Cl+3]([O-])([O-])O`, the GI50 in [1] was > 100 µM (inactive); in assay [2] it was > 100 µM (inactive); in assay [3], > 100 µM (inactive); in assay [4], > 100 µM (inactive); in assay [5], 70.8 µM (inactive); in assay [6], > 100 µM (inactive). Besides, the GI50 in [7] was > 100 µM (inactive); in assay [8], > 100 µM (inactive); in [11], > 100 µM (inactive); in assay [12], 59.7 µM (inactive); in assay [13] it was 45.9 µM (inactive); in [14] it was 54.6 µM (inactive). The GI50 in [16] is 76 µM (inactive); in assay [17], > 100 µM (inactive); in assay [18], 29.2 µM (inactive).

Take `CCOc1ccccc1NC(=O)C(=O)Cc1nc2ccccc2s1`: the GI50 was > 100 µM (inactive) in assay [1]; 90.4 µM (inactive) in [2]; > 100 µM (inactive) in [3]; > 100 µM (inactive) in assay [4]; > 100 µM (inactive) in assay [5]; > 100 µM (inactive) in assay [6]. Besides, the GI50 in assay [7], in assay [9], in assay [10], in assay [11], in assay [12] and in assay [14] was > 100 µM (inactive) throughout. In addition, the GI50 in assay [15], in [16], in [17] and in assay [18] was > 100 µM (inactive) each time.

As to `Cc1cccc(C)c1NC(=O)/C(=N/NC(N)=S)C(C)C(=O)c1ccc(Cl)cc1` (stereo unspecified), the GI50 is > 100 µM (inactive) in assay [1]; 78.5 µM (inactive) in assay [2]; > 100 µM (inactive) in [3]; > 100 µM (inactive) in assay [4]; > 100 µM (inactive) in [5]; > 100 µM (inactive) in assay [6]. Moreover, the GI50 in assay [7], in assay [8], in assay [9], in assay [10], in assay [11] and in [12] was > 100 µM (inactive) each time. In addition, the GI50 in assay [14] was > 100 µM (inactive); in [15], > 100 µM (inactive); in [16], 89.9 µM (inactive); in assay [17], > 100 µM (inactive); in assay [18] it was > 100 µM (inactive).

For the molecule `CCOC(=O)C1(C/C=C(/C)Cl)CCCC1=O` (stereo unspecified), the GI50 in assay [2] is > 100 µM (inactive); in [4] it was > 100 µM (inactive); in assay [5], 20.7 µM (inactive); in assay [6], > 100 µM (inactive); in assay [7] it was > 100 µM (inactive); in [8] it was > 100 µM (inactive). The GI50 in assay [9], in assay [10], in assay [11], in assay [12], in assay [13] and in assay [14] was > 100 µM (inactive) in each case. In addition, the GI50 in [15], in assay [16], in assay [17] and in assay [18] was > 100 µM (inactive) throughout.

As for `COc1cc2c(cc1OC)C1C=NC(C(=O)O)(C2)c2ccccc21` (stereo unspecified), the GI50 is > 100 µM (inactive) in assay [1]; > 100 µM (inactive) in assay [2]; > 10 µM (inactive) in assay [3]; > 100 µM (inactive) in assay [4]; > 100 µM (inactive) in assay [5]; > 100 µM (inactive) in [6]. Further, the GI50 was > 100 µM (inactive) in assay [8]; 52.5 µM (inactive) in [9]; > 100 µM (inactive) in assay [10]; > 100 µM (inactive) in assay [11]; > 100 µM (inactive) in assay [12]; > 100 µM (inactive) in assay [13]. Moreover, the GI50 in [14], in assay [16] and in assay [18] was > 100 µM (inactive) each time.
